According to patent US9834541B2, “2-aminopyridine compounds” (Merck Patent GmbH, priority 2012, dated 2017):

How the values were obtained:
Wnt pathway = experiment: Cellular assay for Wnt pathway activity, LS174T-shl-fLuc clone 5 (LS174T-L5) luciferase reporter assay; type: cell-based; conditions: Homo sapiens; LS174T TCF luciferase reporter cells, 24 hours incubation
Description: 1. Cellular Assay for Wnt Pathway Activity LS174T-shl-fLuc Clone 5 (LS174T-L5) Reporter Assay Principle:
This assay is based on an in-vitro luciferase activity readout. The human colon cancer cell line, LS174T was transduced with a lentivirus encoding a short half-life luciferase (with a destabilised PEST sequence construct; construct F1756): 16×TCF/LEF transcription sites—short half life firefly luciferase on a basal pTA promoter—puromycin resistance gene on an EF-1-α promoter). This construct was made using the lentiviral base vector: pCDF1-MCS2-EF1-Puro from System Biosciences (cat. # CD110B-1). The luciferase has a T1/2 of about 60 minutes.
Stable luciferase-expressing clones were selected, using 1 μg/mL puromycin selection and the clones were bulked up.
Compounds that inhibit the Wnt pathway are predicted to inhibit the induction of luciferase transcription by TCF; this will result in reduced luciferase protein production and luciferase signal readout.
Compounds were tested for their Wnt pathway inhibitory activities using the described firefly luciferase reporter cell based assay. An LS174T luciferase reporter cell line was used which contained a T-Cell Factor (TCF) dependent gene promoter firefly luciferase construct.
Compounds, in concentrations from 30 μM to 1 nM, were incubated for 24 hours on the cells. Luciferase activities were determined using the Steady Glo Luciferase Assay System (Promega) and the TOPCOUNT microplate reader (Perkin Elmer). For analysis, the obtained data were normalized against the untreated vehicle control and fitted for determination of the IC50 values using the Excel Fit application of the Excel Software (Microsoft).

[1] = CLint (intrinsic clearance) assay, liver microsomal incubation; type: in vitro ADME, human; conditions: liver microsomes, pH 7.4; human hepatic microsomes, 0.5 mg/mL protein, class symbols
Description: Also shown is the human hepatic microsomal intrinsic clearance (CLint), whereby the following classification is used:
2. CLint (Intrinsic Clearance) Assay
A Tecan Genesis workstation (RWS ASY 150/8) was used to perform the microsomal incubations. Analysis was carried out using a Waters ACQUITY UPLC system coupled to an ABSciex API3000 mass spectrometer. Data analysis was performed using Assay Explorer (Symyx).
Column: Acquity UPLC BEH C18, 2.1×50 mm, 1.7 um (Waters)
Mobile phases: • A=0.1% formic acid in water • B=acetonitrile
Column temperature: 50° C.
0.1 M potassium phosphate buffer pH 7.4 containing 1 mM MgCl2
15 mM NADPH in phosphate buffer
5.0 mg protein/mL liver microsomes in phosphate buffer
Each experiment consists of 12 test and 2 reference compounds. The reference compounds are incubated as a cocktail.
Dilution of test compounds was done in 2 steps from a 10 mM DMSO stock solution. First 4 μL stock solution was added to 196 μL of 20% DMSO in potassium phosphate buffer pH 7.4. In a second step 10 μL of the first dilution were added to 1890 μL potassium phosphate buffer and 100 μL internal standard solution to a final concentration of […].
100 μL of the final compound dilution were aliquoted into a 96 deep well plate. 12.5 μL liver microsomes were added to each well (0.5 mg/mL final protein concentration) and the samples preincubated for 5 min at 37° C. and 800 rpm agitation.
After the preincubation, 250 μL cold acetonitrile were added to the 0 min samples to prevent a reaction. Following this, 12.5 μL NADPH solution were added to all wells to start the incubation, with the exception of the 0 min and 30 min controls without cofactor, where the NADPH was substituted for phosphate buffer.
The incubations were stopped after 5, 10, 20 and 30 min by adding 250 μL cold acetonitrile to the individual wells.
The quenched samples were then centrifuged at 4000 g for 1 h at 4° C. 100 μL of the supernatant were transferred into 96 well plates for analysis.
The metabolic stability of each compound was determined by measurement of the change in LC-MS/MS peak area over time. Assay Explorer software was used to automatically calculate the slope k of the decline. The intrinsic clearance (CLint) of each compound was then calculated according to the formula: CLint(μL/min/mg protein)=k1000/protein concentration.

Row | SMILES | IC50 (Wnt pathway) | microsomal CLint at 0.8 μM [1]
1 | CN1C(=O)Cc2cc(-c3cnc(N)c(Cl)c3N3CCC4(CCNC4=O)CC3)ccc21 [Compound 15, 8-[2-Amino-3-chloro-5-(1-methyl-2-oxo-2,3-dihydro-1H-indol-5-yl)-pyridin-4-yl]-2,8-diaza-spiro[4.5] decan-1-one] | 54 nM | 10 to 50 µL/min/mg
2 | Nc1ncc(-c2ccc(N3CCOCC3)cc2)c(N2CCC3(CCNC3=O)CC2)c1Cl [Compound 18, 8-[2-Amino-3-chloro-5-(4-morpholin-4-yl-phenyl)-pyridin-4-yl]-2,8-diaza-spiro[4.5] decan-1-one] | 120 nM | 50 to 100 µL/min/mg
3 | Nc1ncc(-c2ccc3c(c2)CCC(=O)N3)c(N2CCC3(CCNC3=O)CC2)c1Cl [Compound 19, 6-[6-Amino-5-chloro-4-(1-oxo-2,8-diaza-spiro[4.5]dec-8-yl)-pyridin-3-yl]-3,4-dihydro-1H-quinolin-2-one] | 75 nM | 10 to 50 µL/min/mg
4 | CN1c2ccc(-c3cnc(N)c(Cl)c3N3CCC4(CCNC4=O)CC3)cc2CS1(=O)=O [Compound 26, 8-(2-Amino-3-chloro-5-(1-methyl-2,2-dioxido-1,3-dihydrobenzo[c]isothiazol-5-yl)pyridin-4-yl)-2,8-diazaspiro[4.5]decan-1-one] | 6 nM | 100 to 150 µL/min/mg
5 | N#CC1CCN(c2c(-c3ccc(N4CCOCC4)cc3)cnc(N)c2Cl)CC1 [Compound 27, 1-(2-Amino-3-chloro-5-(4-morpholinophenyl)pyridin-4-yl)piperidine-4-carbonitrile] | 34 nM | 100 to 150 µL/min/mg
6 | CN1CCN(c2ccc(-c3cnc(N)c(Cl)c3N3CCC(C#N)CC3)cc2)CC1 [Compound 30, 1-(2-Amino-3-chloro-5-(4-(4-methylpiperazin-1-yl)phenyl)pyridin-4-yl)piperidine-4-carbonitrile] | 12 nM | 10 to 50 µL/min/mg
7 | Nc1ncc(-c2ccc3oc(=O)[nH]c3c2)c(N2CCC3(CCNC3=O)CC2)c1Cl [Compound 32, 5-[6-Amino-5-chloro-4-(1-oxo-2,8-diaza-spiro[4.5]dec-8-yl)-pyridin-3-yl]-3H-benzooxazol-2-one] | 17 nM | 10 to 50 µL/min/mg
8 | Nc1ncc(-c2ccc3c(c2)CC(=O)N3)c(N2CCC3(CCNC3=O)CC2)c1Cl [Compound 33, 8-[2-Amino-3-chloro-5-(2-oxo-2,3-dihydro-1H-indol-5-yl)-pyridin-4-yl]-2,8-diaza-spiro[4.5] decan-1-one] | 154 nM | 10 to 50 µL/min/mg
9 | Nc1ncc(-c2ccc(-c3cnn(CCO)c3)cc2)c(N2CCC3(CC2)CNC(=O)O3)c1Cl [Compound 34, 8-(2-Amino-3-chloro-5-{4-[1-(2-hydroxy-ethyl)-1H-pyrazol-4-yl]-phenyl}-pyridin-4-yl)-1-oxa-3,8-diaza-spiro[4.5] decan-2-one] | 370 nM | 10 to 50 µL/min/mg
10 | Cn1cc(-c2ccc(-c3cnc(N)c(C(F)(F)F)c3N3CCC4(CC3)CNC(=O)O4)cc2)cn1 [Compound 41, 8-{2-Amino-5-[4-(1-methyl-1H-pyrazol-4-yl)-phenyl]-3-trifluoromethyl-pyridin-4-yl}-1-oxa-3,8-diaza-spiro[4.5] decan-2-one] | 75 nM | < 10 µL/min/mg
11 | CN1c2ccc(-c3cnc(N)c(C(F)(F)F)c3N3CCC4(CC3)CNC(=O)O4)cc2CS1(=O)=O [Compound 42, 8-[2-Amino-5-(1-methyl-2,2-dioxo-2,3-dihydro-1H-2I6-benzo[c]isothiazol-5-yl)-3-trifluoro-methyl-pyridin-4-yl]-1-oxa-3,8-diaza-spiro[4.5] decan-2-one] | 11 nM | 10 to 50 µL/min/mg

The remaining lines, values ahead:

Row | IC50 (Wnt pathway) | microsomal CLint at 0.8 μM [1] | SMILES
12 | 25 nM | 100 to 150 µL/min/mg | Cn1cc(-c2ccc(-c3cnc(N)c(Cl)c3N3CCC4(CCNC4=O)CC3)cc2)cn1 [Compound 16, 8-(2-Amino-3-chloro-5-(4-(1-methyl-1H-pyrazol-4-yl)phenyl)pyridin-4-yl)-2,8-diazaspiro[4.5]decan-1-one]
13 | 2 nM | 10 to 50 µL/min/mg | Cn1ncc2cc(-c3cnc(N)c(Cl)c3N3CCC4(CC3)CC(=O)NC4=O)ccc21 [Compound 17, 8-[2-Amino-3-chloro-5-(1-methyl-1H-indazol-5-yl)-pyridin-4-yl]-2,8-diaza-spiro[4.5] decane-1,3-dione]
14 | 54 nM | 10 to 50 µL/min/mg | Cn1ncc2ccc(-c3cnc(N)c(Cl)c3N3CCC4(CC3)CNC(=O)O4)cc21 [Compound 20, 8-[2-Amino-3-chloro-5-(1-methyl-1H-indazol-6-yl)-pyridin-4-yl]-1-oxa-3,8-diaza-spiro[4.5] decan-2-one]
15 | 110 nM | 10 to 50 µL/min/mg | Cn1ncc2cc(-c3cnc(N)c(Cl)c3N3CCC4(CC3)CNC(=O)O4)ccc21 [Compound 21, 8-[2-Amino-3-chloro-5-(1-methyl-1H-indazol-5-yl)-pyridin-4-yl]-1-oxa-3,8-diaza-spiro[4.5] decan-2-one]
16 | 38 nM | 10 to 50 µL/min/mg | Cn1ccc(-c2ccc(-c3cnc(N)c(Cl)c3N3CCC4(CCNC4=O)CC3)cc2)n1 [Compound 22, 8-(2-Amino-3-chloro-5-(4-(1-methyl-1H-pyrazol-3-yl)phenyl)pyridin-4-yl)-2,8-diazaspiro[4.5]decan-1-one]
17 | 21 nM | 10 to 50 µL/min/mg | Cn1ncc2ccc(-c3cnc(N)c(Cl)c3N3CCC4(CCNC4=O)CC3)cc21 [Compound 23, 8-[2-Amino-3-chloro-5-(1-methyl-1H-indazol-6-yl)-pyridin-4-yl]-2,8-diaza-spiro[4.5] decan-1-one]
18 | 18 nM | 100 to 150 µL/min/mg | Nc1ncc(-c2ccc3cc[nH]c3c2)c(N2CCC3(CCNC3=O)CC2)c1Cl [Compound 24, 8-[2-Amino-3-chloro-5-(1H-indol-6-yl)-pyridin-4-yl]-2,8-diaza-spiro[4.5] decan-1-one]
19 | 34 nM | 50 to 100 µL/min/mg | Cn1ncc2cc(-c3cnc(N)c(Cl)c3N3CCC4(CCNC4=O)CC3)ccc21 [Compound 25, 8-(2-Amino-3-chloro-5-(1-methyl-1H-indazol-5-yl)pyridin-4-yl)-2,8-diazaspiro[4.5]decan-1-one]
20 | 12 nM | ≥ 150 µL/min/mg | Nc1ccc(-c2ccc(-c3cnc(N)c(Cl)c3N3CCC4(CCNC4=O)CC3)cc2)cn1 [Compound 28, 8-{2-Amino-5-[4-(6-amino-pyridin-3-yl)-phenyl]-3-chloro-pyridin-4-yl}-2,8-diaza-spiro[4.5] decan-1-one]
21 | 30 nM | 100 to 150 µL/min/mg | Nc1ncc(-c2ccc3cc[nH]c3c2)c(N2CCC3(CC2)CNC(=O)O3)c1Cl [Compound 29, 8-[2-Amino-3-chloro-5-(1H-indol-6-yl)-pyridin-4-yl]-1-oxa-3,8-diaza-spiro[4.5] decan-2-one]
22 | 4 nM | 50 to 100 µL/min/mg | Cn1ncc2cc(-c3cnc(N)c(Cl)c3N3CCC4(CC3)C(=O)Nc3ccccc34)ccc21 [Compound 31, 1′-(2-Amino-3-chloro-5-(1-methyl-1H-indazol-5-yl)pyridin-4-yl)spiro[indoline-3,4′-piperidin]-2-one]
23 | 35 nM | 50 to 100 µL/min/mg | Cn1ncc2cc(-c3cnc(N)c(C(F)(F)F)c3N3CCC4(CCNC4=O)CC3)ccc21 [Compound 39, 8-(2-Amino-5-(1-methyl-1H-indazol-5-yl)-3-(trifluoromethyl)pyridin-4-yl)-2,8-diazaspiro[4.5]decan-1-one]
24 | 100 nM | 10 to 50 µL/min/mg | Cn1cc(-c2ccc(-c3cnc(N)c(Cl)c3N3CCC4(CC3)NCCNC4=O)cc2)cn1 [Compound 40, 9-(2-Amino-3-chloro-5-(4-(1-methyl-1H-pyrazol-4-yl)phenyl)pyridin-4-yl)-1,4,9-triazaspiro[5.5]undecan-5-one]
